Converted amounts (≈) assume the structure as drawn.
Columns and labels:
[1] = target: T1, RXRΓ (Homo sapiens, UniProt P48443); assay: Ligand binding assay, RXRΓ
T1 construct: made in house; host or cells: Baculovirus expression (insect cell extract)
T1 sequence (P48443 1-463): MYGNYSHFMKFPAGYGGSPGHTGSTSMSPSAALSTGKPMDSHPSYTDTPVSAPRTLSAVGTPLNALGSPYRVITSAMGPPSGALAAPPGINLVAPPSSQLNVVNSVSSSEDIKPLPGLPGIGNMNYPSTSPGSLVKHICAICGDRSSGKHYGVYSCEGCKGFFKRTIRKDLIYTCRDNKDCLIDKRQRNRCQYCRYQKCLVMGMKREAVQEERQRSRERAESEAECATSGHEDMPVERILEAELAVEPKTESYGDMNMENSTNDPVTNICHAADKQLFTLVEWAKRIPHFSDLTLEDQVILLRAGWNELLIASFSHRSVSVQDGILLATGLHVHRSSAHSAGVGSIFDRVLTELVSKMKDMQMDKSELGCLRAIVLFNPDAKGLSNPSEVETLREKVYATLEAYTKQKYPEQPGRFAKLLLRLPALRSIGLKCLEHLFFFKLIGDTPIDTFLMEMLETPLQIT
Method: All binding assays were performed in a similar fashion. All six receptor types were derived from the expressed receptor type (RARα, β, Γ and RXRα, β, Γ) expressed in Baculovirus. Stock solutions of all compounds were prepared as 10 mM ethanol solutions and serial dilutions carried out into 1:1 DMSO; ethanol. Assay buffers consisted of the following for all six receptor assays: 8% glycerol, 120 mM KCl 8 mM Tris, 5 mM CHAPS 4 mM DTT and 0.24 mM PMSF, pH-7.4@ room temperature.
All receptor binding assays were performed in the same manner. The final assay volume was 250 μl and contained from 10-40 μg of extract protein depending on receptor being assayed along with 5 nM of [^3H] all-trans retinoic acid or 10 nM [^3H] 9-cis retinoic acid and varying concentrations of competing ligand at concentrations that ranged from 0-10^−5 M. The assays were formatted for a 96 well minitube system. Incubations were carried out at 4° C. until equilibrium was achieved. Non-specific binding was defined as that binding remaining in the presence of 1000 nM of the appropriate unlabeled retinoic acid isomer. At the end of the incubation period, 50 μl of 6.25% hydroxyapitite was added in the appropriate wash buffer. The wash buffer consisted of 100 mM KCl, 10 mM Tris and either 5 mM CHAPS (RXRα, β, Γ) or 0.5% Triton X-100 (RARα, β, Γ). The mixture was vortexed and incubated for 10 minutes at 4° C., centrifuged and the supernatant removed. The hydroxyapitite was washed three more times with the appropriate wash buffer. The receptor-ligand complex was adsorbed by the hydroxyapitite. The amount of receptor-ligand complex was determined by liquid scintillation counting of hydroxyapitite pellet.
After correcting for non-specific binding, IC50 values were determined. […] The IC50 value was determined graphically from a loglogit plot of the data. The […] were determined by application of the Cheng-Prussof equation to the IC50 values, the labeled ligand concentration and the Kd of the labeled ligand.
The results of ligand binding assay are expressed in Kd numbers. (See Cheng et al. Biochemical Pharmacology Vol. 22 pp 3099-3108, expressly incorporated herein by reference.)

[2] = Weight loss in rats treated for 3 days; type: in vivo, rat
Method: Weight loss or gain that experimental animals experience upon administration of retinoid compounds is another test of the drug's toxicity, with significant weight loss at relatively low doses indicating a significant toxic side effect of the retinoid. In one experiment, groups of 5 rats were treated with varying doses (administered in corn oil) of a test retinoid for 3 days. The rats were euthanized 24 hours after the last dose.

[3] = system: limb bud mesenchymal cells; assay: Chondrogenesis suppression bioassay (teratogenic potency); type: cell-based; settings: read-out: IC50 (50% inhibition of chondrogenesis); mouse limb bud spot cultures, 96 hours after plating; greater IC50 signifies lesser teratogenecity
Method: High-density “spot” cultures of limb bud mesenchymal cells are used to compare the ability of various concentrations of test drugs to suppress chondrogenic differentiation as a bioassay. Forelimb buds of mouse embryos on day 12 of gestation (54±2 somites) are dissociated in a trypsin-EDTA solution, and the resultant single-cell suspension is plated as 20-μl spots (200,000 cells/spot) on plastic culture dishes. Retinoid concentrations ranging from 0.3 ng/ml to 3 μg/ml (1 nM−10 μM) are added to the culture medium (Eagle's MEM±10% fetal bovine serum, GIBCO) 24 hours after initial plating. Control cultures receive only the vehicle (ethanol, concentration≦1% by vol); Retinoic acid is used as a positive control in another set of cultures.
The cultures are terminated 96 hours after plating, at which time the medium is removed and the cells are fixed for 1 hour in 10% formalin containing 0.5% cetylpyridinium chloride. The cultures are rinsed in acetic acid and stained for 1 hour in 0.5% Alcian blue solution at pH 1.0, differentiated in 3% acetic acid, and then dehydrated in ethanol and scored for chondrogenesis under the microscope. An absence or reduction in the number of cartilage nodules in stained cultures as compared with control cultures is taken as a measure of suppression of chondrogenesis. The number of cartilage nodules stained in the whole spot, mean number of nodules, and standard deviations are calculated for four replicate cultures per treatment. […] The IC50 values are expressed in nanogram per mililiter (ng/ml) units. An IC50 value of greater concentration in this assay signifies lesser teratogenecity.

SMILES: CC(C)(C)c1cc(C(=O)Nc2ccc(C(=O)O)c(F)c2)cc(C(C)(C)C)n1 [Compound 42]
- Kd [1]: > 1000 nM
- mucocutaneous toxicity ([2]; rats, 10, 30 and 90 μmol/kg/day for 3 days): significant mucocutaneous toxicity was not observed
- weight loss compared to control ([2]; rats, daily doses up to 90 μmol/kg/day in corn oil for 3 days, FIG. 6, FIG. 7): virtually no weight loss, as compared to the control, except in a very high dose (90 μmol/kg/day)
- IC50 [3]: 0.065 µg/mL (≈ 0.175 µM)
